Measured values as given in PMC6911004, “Fragment-based screening identifies molecules targeting the substrate-binding ankyrin repeat domains of tankyrase” (Scientific Reports, 2019).
Entries after “also recorded” stand apart in the source; their conditions may differ.

Columns and labels:
[1] = target: T1, TNKS2 ARC5 (Homo sapiens, UniProt Q9H2K2); assay: Differential scanning fluorimetry (DSF, thermal shift); assay type: binding; settings: fragment 500 μM, 5% DMSO
T1 construct: followed by TNKS2 ARC5 (1 μL, 100 μM stock); His6-GST; made in house; host or cells: E. coli
Protocol: Therefore, we chose TNKS2 ARC5 for screening by DSF, anticipating the largest signal window for measuring changes in Tm upon fragment binding.
We screened 1869 compounds in duplicate at a concentration of 500 μM, which we considered a reasonable compromise between having a sufficiently high concentration to identify weak binders while minimising the likelihood of false positives through fragment precipitation/aggregation and non-specific binding. The final DMSO concentration was 5%. We calculated melting temperatures using both the inflection point and the maximum peak of first derivative data methods. Both methods generally agreed, unless the melt curve was biphasic or misshapen, with slightly lower variability for the […] Tm determination method (see Materials and Methods for experimental and analysis details).
We determined the melting temperature for the unbound ARC (Tm, 0) from the mean of 12 reference melting curves per plate, with 5% DMSO only. We calculated the change in melting temperature (ΔTm) by subtracting the mean Tm, 0 from Tm, compound. We tested compounds in duplicate, defining fragments as hits if they conferred a ΔTm outside two standard deviations (2σ) from the mean, in one or both replicates. To check for consistency between plates, we ran triplicate peptide controls; however, we excluded peptide ΔTm values from the calculation of the mean ΔTm to avoid skewing the results. We observed mean ΔTm values (IP/1st derivative methods) of −0.127/−0.331 °C and σ as 0.997/1.19 °C. A hit cut-off of 2σ gave absolute shifts of +1.87/+2.05 °C for compounds that stabilised and −2.13/−2.71 °C for compounds that destabilised the ARC (Fig. 2B).
For the screen, a C1000 thermal cycler (Bio-Rad) was used to record melt curves. SYPRO Orange was purchased as a 5000 × stock in DMSO from Sigma Aldrich. The ICR fragment library was available as 100 mM stocks in DMSO, and dispensed (25 nL) using an ECHO acoustic liquid handling system into white 384-well PCR plates (Framestar, 4titude). Wells were backfilled with DMSO (225 nL). Buffer (2.75 μL, 25 mM HEPES-NaOH pH 7.5, 100 mM NaCl, 2 mM TCEP) was added, followed by TNKS2 ARC5 (1 μL, 100 μM stock) and then SYPRO orange dye (1 μL, 25×). The plate was centrifuged after the addition of each reagent (1 min, 1000 × g). Final assay concentrations were as follows: TNKS2 ARC5 (20 μM); fragment (500 μM); SYPRO Orange dye (5×); DMSO (5% v/v) in a total volume of 5 μL. Peptide control wells (3BP2 TBM 16-mer, 200 μM, sequence LPHLQRSPPDGQSFRSW with C-terminal tryptophan added for photometric concentration measurements, the N-terminus acetylated and the C-terminus amide-capped) were plated in triplicate, and there were 12 blank wells per plate, with DMSO only (250 nL, 5% v/v). Melt curves were recorded from 20–95 °C, with the temperature ramped by 0.5 °C every 15 s. Data were analysed using Vortex (Dotmatics) software and melting temperatures calculated from both the inflection point and the maximum peak of 1st-derivative data. Data points were excluded if the melt curve was poor, i.e., if there was no fluorescence signal above baseline, high fluorescence intensity throughout, or if the melt curve was shallow (<1000 rfu difference between baseline and peak maximum). The unbound melting temperature was determined from the mean of 12 reference melting curves, with 5% DMSO only. The change in melting temperature (ΔTm) was calculated by subtracting the mean Tm, 0 from Tm, compound. Compounds were tested in duplicate, and fragments were defined as hits if they gave a ΔTm outwith 2 σ from the mean in one or both replicates.
For the experiment shown in Fig. 2A, ARC and 3BP2 TBM peptide concentrations were 20 and 200 μM, respectively, in 50 mM HEPES-NaOH pH 7.5, 100 mM NaCl, 2 mM TCEP and a total volume of 25 μL. SYPRO Orange was added at 5×. Data were recorded from 4–95 °C, with the temperature ramped by 0.5 °C every 15 s, using a CFX384 thermal cycler (Bio-Rad). […]

[2] = target: T2, TNKS2 ARC4 (Homo sapiens, UniProt Q9H2K2); assay: WaterLOGSY NMR assay; assay type: binding; settings: for waterLOGSY: wild-type TNKS2 ARC4 20 μM, negative NOE = binder
T2 construct: The cell was filled with TNKS2 ARC4 (488–649); His6-GST; made in house; host or cells: E. coli
T2 sequence (Q9H2K2 488-649): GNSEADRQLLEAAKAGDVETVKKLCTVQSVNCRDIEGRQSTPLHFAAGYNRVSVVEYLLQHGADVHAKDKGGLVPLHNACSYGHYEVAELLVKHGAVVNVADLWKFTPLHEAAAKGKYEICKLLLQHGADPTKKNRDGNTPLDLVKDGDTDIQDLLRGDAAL
Protocol: We next sought close structural analogues of hit fragments 3 and 5 to gain early insights into structure-activity relationships (SAR) and binding modes of hit fragments. We initially tested the analogues using both relaxation-edited and waterLOGSY NMR assays against TNKS2 ARC4 (Table 1), followed by protein-observed NMR if binding was detected in both ligand-observed NMR experiments.
Fragments were dispensed in duplicate into a 384-well plate (250 nL, 100 mM stock in DMSO). Wells were backfilled with DMSO (2.25 μL). Tankyrase ARC protein (47.5 μL in 25 mM HEPES-NaOH pH7.5, 100 mM NaCl, 2 mM TCEP, 10% D2O; 20 μM final protein concentration in the assay) was added to the samples containing protein; buffer only (47.5 μL) was added to the compound-only samples. Solutions were transferred to 1.7 mm NMR tubes using a Gilson liquid handling system. ^1H NMR spectra were recorded, with the DMSO signal dampened. The bulk water signal at 4.7 ppm was selectively inverted. Data were processed using Bruker Topspin 3.14[66].

T1 sequence (Q9H2K2 641-800): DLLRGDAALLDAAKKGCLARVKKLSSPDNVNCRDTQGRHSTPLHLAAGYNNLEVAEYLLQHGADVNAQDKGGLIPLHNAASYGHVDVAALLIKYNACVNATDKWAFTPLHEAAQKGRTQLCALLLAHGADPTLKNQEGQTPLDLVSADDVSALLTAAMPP

ΔTm (°C) ([1]; method of Tm analysis not stated)	ΔTm calculated by the inflection point method ([1]; screen, biphasic melt curves) [°C]	ΔTm calculated by the 1st derivative method ([1]; screen, second peak used to calculate Tm) [°C]	waterLOGSY: competition with 3BP2 TBM peptide [2]	Compound	waterLOGSY [2]	waterLOGSY, compound alone ([2]; no protein added)
2.5	–	–	–	O=C(NCc1ccco1)c1ccc(F)cc1 [compound 3]	negative NOE; also recorded: binding	–
–	1.6	8.1	peptide competition	O=C(NCc1ccc(F)cc1)c1ccc2nccnc2c1 [compound 5]	negative NOE; also recorded: binding	–
–	–	–	–	O=C(NCc1ccco1)c1ccc2nccnc2c1 [compound 9]	one peak has negative NOE; also recorded: binding; also recorded: negative NOE signal	no NOE
